# Paper PMC5963591, “Bitopic Binding Mode of an M1 Muscarinic Acetylcholine Receptor Agonist Associated with Adverse Clinical Trial Outcomes” (Molecular Pharmacology, 2018)
# Assays:
# [1] = system: wild-type M1 mAChR; test: Agonist bias analysis, IP1 versus ERK1/2 phosphorylation (operational model); assay type: cell-based, human; details: reference ligand ACh
# Text: (§1) For the analysis, all families of agonist curves at each pathway were globally fitted to the model with the parameters, basal, Em, and n shared between all agonists. For full agonists, the LogKA was constrained to a value of zero, whereas for partial agonists this was directly estimated by the curve fitting procedure; the Log(τ/KA) parameter was estimated as a unique measure of activity for each agonist.
# [2] = target: T1, human M1 mAChR (Homo sapiens, UniProt P11229); test: IP1 accumulation after receptor alkylation with phenoxybenzamine (functional interaction with ACh); details: phenoxybenzamine 3 μM for 30 minutes, CHO Flp-In cells
# T1 sequence (P11229 1-460): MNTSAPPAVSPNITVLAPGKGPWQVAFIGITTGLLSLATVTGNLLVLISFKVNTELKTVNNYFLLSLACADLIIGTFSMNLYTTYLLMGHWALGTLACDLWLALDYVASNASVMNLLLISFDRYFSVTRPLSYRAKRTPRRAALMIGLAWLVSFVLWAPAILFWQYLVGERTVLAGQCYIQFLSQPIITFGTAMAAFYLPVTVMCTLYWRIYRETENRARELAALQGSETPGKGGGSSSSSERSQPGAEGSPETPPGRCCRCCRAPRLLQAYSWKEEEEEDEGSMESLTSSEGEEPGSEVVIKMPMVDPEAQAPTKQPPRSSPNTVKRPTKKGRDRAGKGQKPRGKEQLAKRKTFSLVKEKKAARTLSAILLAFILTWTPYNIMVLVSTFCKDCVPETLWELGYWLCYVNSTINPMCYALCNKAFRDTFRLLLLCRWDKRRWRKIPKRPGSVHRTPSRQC
# [3] = system: C57Bl/6J mice; test: Contextual fear conditioning, scopolamine-induced deficit; assay type: in vivo, mouse; details: for shape of the dose response on learning and memory: escalating i.p. doses with scopolamine […]
# Protocol: C57Bl/6J male mice (aged 8–12 weeks) were acclimatized to the behavioral testing suite at least 2 hours prior to the test. […] Mice were placed in the conditioning chamber (ANY-maze Fear Conditioning System; Stoelting, Dublin, Ireland); after a 2-minute adaptation period, they received three tone/foot shock pairings where the foot shock (unconditioned stimulus; 2 seconds; 0.4 mA) always co-terminated with a tone (conditioned stimulus; 2.8 kH; 85 dB; 30 seconds). The conditioned stimulus–unconditioned stimulus pairings were separated by 1-minute intervals. After the mice completed training, they remained in the conditioning chamber for 1 minute and were then returned to their home cages. The next day, the mice were placed back in the conditioning chamber, and time spent immobile was recorded for 3 minutes to assess context-dependent learning. Data were analyzed using ANY-maze software (Stoelting).
# [4] = target: T1, human M1 mAChR; test: Kinetic [3H]-NMS binding (dissociation) in membranes; design: expressed in transfected cells; host or cells: CHO Flp-In; details: compound 10 μM plus atropine 10 μM
# Protocol: Reactions were terminated by rapid filtration onto GF/B filter paper (Whatman, Maidstone, UK) and three washes with 3 ml ice-cold 0.9% NaCl using a Brandel harvester (M-24TI; Brandel, Fort Lauderdale, FL). Membrane bound radioactivity was determined by liquid scintillation (Ultima Gold; PerkinElmer) counting.
# [5] = target: T1, human M1 mAChR; test: IP-One (IP1) accumulation assay, CHO Flp-In human M1 cells; assay type: cell-based; design: expressed in transfected cells; host or cells: CHO Flp-In
# Protocol: Stimulation of IP accumulation was determined using the Cisbio IP-One Gq assay kit per the manufacturer’s instructions. […] CHO Flp-In cells stably expressing the human M1 mAChR were grown to confluence in T75 cell culture flasks at 37°C. Cells were washed with warm phosphate-buffered saline and detached using phosphate-buffered saline with 0.1 M EDTA. Detached cells were centrifuged at 1000g and the cells were resuspended in stimulation buffer.
# All IP-One stimulations were terminated by the addition of 3 μl/well IP1-d2 solution, followed by 3 μl/well anti–IP1-cryptate solution and incubation for 1 hour at room temperature with shaking.
# Functional concentration-response curves were fitted according to a four-parameter logistic equation (to determine minimum and maximum asymptotes, LogEC50, and slope; GraphPad Prism 6). […] In the absence of antagonist ([B] = 0), this equation becomes the standard four-parameter logistic equation for fitting agonist concentration-response data.
# [6] = Mouse pharmacokinetics, unbound plasma and brain concentrations; assay type: in vivo; details: mice, 30 minutes after i.p. administration
# Protocol: Pharmacokinetic analyses were conducted as previously described ([Witkin et al., 2017]). Compounds were administered via intraperitoneal injection (in 5% glucose) 30 minutes prior to blood collection. Mice were anesthetized with 3% isoflurane (2 l/min), and blood was collected by cardiac puncture of the left ventricle. Blood was immediately transferred to EDTA tubes and centrifuged at 1000g for 10 minutes at 4°C; the supernatant was collected and frozen. Brains from each mouse were also dissected and snap-frozen on dry ice.
# Brain samples were homogenized in three volumes of methanol/water [1:4 (v/v)] by weight. A 25-μl aliquot of each study sample, calibration standard, and control sample was added to a 96-well plate and mixed with 180 μl acetonitrile/methanol [1:1 (v/v)] containing internal standard. The samples were subsequently centrifuged, and the resulting supernatants were diluted 12.5-fold with methanol/water [1:1 (v/v)] prior to analyzing 10-μl aliquots by liquid chromatography–tandem mass spectrometry as previously described ([Bradley et al., 2017]).
# [7] = target: T1, human M1 mAChR; details: 20 nM [^3H]-GSK1034702
# [8] = target: T2, human M1 receptor (Homo sapiens, UniProt P11229); test: ERK1/2 phosphorylation, CHO Flp-In human M1 cells; assay type: cell-based
# T2 construct: expressed in transfected cells; host or cells: CHO Flp-In
# T2 sequence (P11229 1-460): T1 sequence (P11229 1-460)
# Protocol: CHO Flp-In cells stably expressing the human M1 receptor were seeded onto transparent 96-well plates at 20,000 cells/well and grown to confluence. Cells were serum starved overnight prior to the experiment. Prior to the stimulations, cells were washed with 100 μl phosphate-buffered saline and then incubated in serum free F12 medium at 37°C. Cells were stimulated with ligands for 5 minutes at 37°C in a final volume of 200 μl. The stimulations were terminated by rapid aspiration and addition of 50 μl lysis buffer supplemented with blocking reagent per the manufacturer’s instructions, followed by gentle agitation at room temperature for 30 minutes. Subsequently, 16 μl of this lysate was transferred to a 384-well white ProxiPlate (PerkinElmer) and incubated with 4 μl premixed antibody solution for 2 hours at room temperature.
# as §1
# [9] = system: murine prion disease; details: doses that rescued learning and memory, ref Bradley et al., 2017; cited from earlier work
# [10] = system: patients with AD; design: method as in Bodick et al., 1997; details: ref Bodick et al., 1997; cited from earlier work
# [11] = normalized to reference ligand ACh
# [12] = transduction coefficient, wild-type M1 mAChR
structure (smiles),measurement,setting,value
"CC(=O)OCC[N+](C)(C)C [ACh, acetylcholine]",Log Bias Factor IP1 – ERK1/2 ΔΔLog10(τ/KA),[1],0.0 ± 0.1
"CC(COc1ccccc1)N(CCCl)Cc1ccccc1 (stereo not drawn) [Phenoxybenzamine, phenoxybenzamine, reference compound]",reduction of the functional human M1 mAChR population,[2],approximately 80%
"Cc1ccccc1CN1CCC(N2CCC(n3c(=O)[nH]c4ccccc43)CC2)CC1 [TBPB, 1-[1′-(2-methylbenzyl)-1,4′-bipiperidin-4-yl]-1,3-dihydro-2H-benzimidazol-2-one, reference compound]",shape of the dose response on learning and memory,[3],no evidence of a bell-shaped dose response
same,Log Bias Factor IP1 – ERK1/2 ΔΔLog10(τ/KA),[1],1.4 ± 0.2
same,effect on the [^3H]-NMS dissociation rate,[4],no effect
same,IP1 Emax,[5]; CHO Flp-In human M1 cells,55.2 ± 3.1
same,IP1 Accumulation ΔLog10(τ/KA),[5]; [11],1.1 ± 0.2
same,IP1 Accumulation Log10(τ/KA),[5]; [12],8.2 ± 0.2
same,free brain concentration versus dose,[6],could not be increased beyond that observed at 10 mg/kg
same,displacement of specific [^3H]-GSK1034702 binding,[7],fully displaced
same,ERK1/2 Phosphorylation ΔLog10(τ/KA),[8]; [11],−0.3 ± 0.4
same,ERK1/2 Phosphorylation Log10(τ/KA),[8]; [12],6.9 ± 0.4
"CCCCCCOc1nsnc1C1=CCCN(C)C1 [Xanomeline, xanomeline]",shape of the dose response on learning and memory,[3],bell shaped
same,adverse responses,[9],gave adverse responses consistent with the activation of other muscarinic receptor subtypes
same,Log Bias Factor IP1 – ERK1/2 ΔΔLog10(τ/KA),[1],1.1 ± 0.1
same,effect on cognitive function,[10],significantly improved cognitive function
same,free brain concentration versus dose,[6],increase linearly with escalating doses
CN1[C@@H]2C[C@@H](OC(=O)[C@H](CO)c3ccccc3)C[C@H]1[C@@H]1O[C@@H]12 [scopolamine],effect on contextual fear conditioning learning and memory,"[3]; doses above 1 mg/kg, 30 minutes prior to training",significant reduction in contextual fear conditioning learning and memory
